Assay results: US20100261662A1, “UTILIZATION OF MURAL THROMBUS FOR LOCAL DRUG DELIVERY INTO VASCULAR TISSUE” (ENDOLOGIX, INC., priority 2009, published 2010)

How the values were obtained:
[1] = system: collagen contained within the vascular tissue; assay: Short-term application of catechin to vascular tissue; details: short-term (approximately 10-30 minute) application
Excerpt: Catechin can be delivered in solution form into the mural thrombus. This delivery method pathway can be used, without limitation, when a short-acting application of a high-concentration of catechin is desired. […] In some embodiments, the concentration of the agent can be in the range from approximately 0.01% to approximately 20%, or between approximately 2.0% and approximately 10.0%, or to or from any values within these ranges.

skin collagen = details: rats treated with catechin; cited from earlier work

## catechin
[1]
  stabilization of collagen in vascular tissue: can stabilize the collagen
Skin collagen
  stability of skin collagen against enzymatic degradation: stable against enzymatic degradation
